What was measured:
[1] = tested on: Nitrosomonas europaea IF014298 with luciferase gene (luxAB); experiment: in-vitro nitrification bacteria test, biological luminescence accompanying nitrification reaction; settings: incubation at 15° C. for 30 minutes; for 80% inhibitory concentration: concentration where the nitrification inhibitory ratio became 80%
[2] = in the ordinarily used range; RTECS No. QJ5775000; cited from earlier work

Row | SMILES | 80% inhibitory concentration [1] [ppm] | 50% inhibitory concentration ([1]; concentration where the nitrification-inhibitory ratio became 50%) [ppm] | toxicity [2]
1 | Clc1cccc(C(Cl)(Cl)Cl)n1 [Comparative Example 14, 2-chloro-6-Trichloromethylpyridine, reference compound] | 4 | – | –
2 | O=C1C=CC(=O)c2c(O)cccc21 [Example 1, 5-hydroxy-1,4-naphtoquinone] | 0.08 | 0.03 | low toxicity
3 | N#CN=C(N)N [Comparative Example 15, dicyanodiamide, reference compound] | 185 | – | –
